What was measured:
[1] = test system: SARS-COV-2-S-driven entry; assay type: cell-based, SARS-CoV-2 spike pseudovirus in A549 cells
[2] = test system: VSV-G-driven entry; assay type: cell-based, VSV-G pseudovirus

Row | Structure (SMILES) | inhibition of SARS-COV-2-S-driven entry (in words) [1] | blocking effect on pseudovirus entry into host A549 cells [1] | inhibition of VSV-G-driven entry (in words) [2]
1 | CN(C)C(=O)COC(=O)Cc1ccc(OC(=O)c2ccc(NC(=N)N)cc2)cc1 [camostat, Camostat Mesilate] | No inhibition |  | 
2 | CCN1CCN(C(=O)N[C@@H](C(=O)N[C@@H]2C(=O)N3C(C(=O)O)=C(CSc4nnnn4C)CS[C@H]23)c2ccc(O)cc2)C(=O)C1=O [cefoperazone] | No inhibition |  | 
3 | COc1cc(C(=O)NS(=O)(=O)c2ccccc2C)ccc1Cc1cn(C)c2ccc(NC(=O)OC3CCCC3)cc12 [Zafirlukast] | inhibited | blocking effect | not VSV-G-driven entry
